How the values were obtained:
[1] = system: Staphylococcus ureilyticus; assay: Antibacterial activity against clinical isolate Staphylococcus ureilyticus 1972 measured after 24 hrs by broth microdilution method; type: functional
[2] = system: Staphylococcus aureus; assay: Antibacterial activity against Staphylococcus aureus ATCC 29213 measured after 24 hrs by broth microdilution method; type: functional
[3] = system: Bacillus subtilis; assay: Antibacterial activity against Bacillus subtilis 168 measured after 24 hrs by broth microdilution method; type: functional
[4] = system: Micrococcus luteus; assay: Antibacterial activity against Micrococcus luteus clinical isolate measured after 24 hrs by broth microdilution method; type: functional
[5] = system: Escherichia coli; assay: Antibacterial activity against Escherichia coli MG 1655 measured after 24 hrs by broth microdilution method; type: functional
[6] = system: Pseudomonas aeruginosa; assay: Antibacterial activity against Pseudomonas aeruginosa ATCC 27853 measured after 24 hrs by broth microdilution method; type: functional
[7] = Cytotoxicity against human HEK293 cells assessed as cell viability measured after 72 hrs by MTT assay; type: cell-based
[8] = Cytotoxicity against human mesenchymal stem cells assessed as cell viability measured after 72 hrs by MTT assay; type: cell-based
[9] = Cytotoxicity against human skin fibroblasts assessed as cell viability measured after 72 hrs by MTT assay; type: cell-based, Fibroblast
[10] = Genotoxicity in Salmonella typhimurium TA1535/pSK1002 assessed as DNA-damage activity by measuring beta-galactosidase activity at 750 ug/ml measured by SOS-chromotest relative to solvent control; type: toxicity; conditions: salmonella enterica subsp. enterica serovar typhimurium; dose 750 µg/ml
[11] = Genotoxicity in Salmonella typhimurium TA1535/pSK1002 assessed as DNA-damage activity by measuring beta-galactosidase activity at 150 ug/ml measured by SOS-chromotest relative to solvent control; type: toxicity; conditions: salmonella enterica subsp. enterica serovar typhimurium; dose 150 µg/ml
[12] = Genotoxicity in Salmonella typhimurium TA1535/pSK1002 assessed as DNA-damage activity by measuring beta-galactosidase activity at 75 ug/ml measured by SOS-chromotest relative to solvent control; type: toxicity; conditions: salmonella enterica subsp. enterica serovar typhimurium; dose 75 µg/ml
[13] = Genotoxicity in Salmonella typhimurium TA1535/pSK1002 assessed as DNA-damage activity by measuring beta-galactosidase activity at 15 ug/ml measured by SOS-chromotest relative to solvent control; type: toxicity; conditions: salmonella enterica subsp. enterica serovar typhimurium; dose 15 µg/ml
[14] = Genotoxicity in Salmonella typhimurium TA1535/pSK1002 assessed as DNA-damage activity by measuring beta-galactosidase activity at 7.5 ug/ml measured by SOS-chromotest relative to solvent control; type: toxicity; conditions: salmonella enterica subsp. enterica serovar typhimurium; dose 7.5 µg/ml
[15] = Genotoxicity in Salmonella typhimurium TA1535 assessed as number of revertant by Ames spot test relative to solvent control; type: toxicity; conditions: salmonella enterica subsp. enterica serovar typhimurium
[16] = Genotoxicity in Salmonella typhimurium TA1537 assessed as number of revertant by Ames spot test relative to solvent control; type: toxicity; conditions: salmonella enterica subsp. enterica serovar typhimurium
[17] = Genotoxicity in Salmonella typhimurium TA98 assessed as number of revertant by Ames spot test relative to solvent control; type: toxicity; conditions: salmonella enterica subsp. enterica serovar typhimurium
[18] = Genotoxicity in Salmonella typhimurium TA100 assessed as number of revertant by Ames spot test relative to solvent control; type: toxicity; conditions: salmonella enterica subsp. enterica serovar typhimurium
[19] = system: Staphylococcus aureus; assay: Antibacterial activity against clinical isolate methicillin-resistant Staphylococcus aureus 713 measured after 24 hrs by broth microdilution method; type: functional
[20] = system: Staphylococcus aureus; assay: Antibacterial activity against clinical isolate methicillin-resistant Staphylococcus aureus 983 measured after 24 hrs by broth microdilution method; type: functional
[21] = system: Staphylococcus aureus; assay: Antibacterial activity against clinical isolate methicillin-resistant Staphylococcus aureus 1053 measured after 24 hrs by broth microdilution method; type: functional
[22] = system: Staphylococcus intermedius; assay: Antibacterial activity against clinical isolate methicillin-resistant Staphylococcus intermedius 1061 measured after 24 hrs by broth microdilution method; type: functional
[23] = system: Staphylococcus aureus; assay: Antibacterial activity against clinical isolate methicillin-resistant Staphylococcus aureus 1065 measured after 24 hrs by broth microdilution method; type: functional
[24] = system: Staphylococcus aureus; assay: Antibacterial activity against clinical isolate methicillin-resistant Staphylococcus aureus 1131 measured after 24 hrs by broth microdilution method; type: functional
[25] = system: Staphylococcus intermedius; assay: Antibacterial activity against clinical isolate methicillin-resistant Staphylococcus intermedius 1143 measured after 24 hrs by broth microdilution method; type: functional
[26] = system: Staphylococcus aureus; assay: Antibacterial activity against clinical isolate Staphylococcus aureus 25 measured after 24 hrs by broth microdilution method; type: functional
[27] = system: Enterococcus faecalis; assay: Antibacterial activity against clinical isolate Enterococcus faecalis 23 measured after 24 hrs by broth microdilution method; type: functional
[28] = system: Enterococcus faecalis; assay: Antibacterial activity against clinical isolate Enterococcus faecalis 3063 measured after 24 hrs by broth microdilution method; type: functional
[29] = system: Acinetobacter sp.; assay: Antibacterial activity against clinical isolate Acinetobacter sp. 3 measured after 24 hrs by broth microdilution method; type: functional
[30] = system: Pseudomonas sp.; assay: Antibacterial activity against clinical isolate Pseudomonas sp. 5 measured after 24 hrs by broth microdilution method; type: functional
[31] = system: Klebsiella sp.; assay: Antibacterial activity against clinical isolate Klebsiella sp. 11 measured after 24 hrs by broth microdilution method; type: functional
[32] = system: Proteus sp.; assay: Antibacterial activity against clinical isolate Proteus sp. 17 measured after 24 hrs by broth microdilution method; type: functional; conditions: Proteus sp. (in: enterobacteria)
[33] = system: Escherichia coli; assay: Antibacterial activity against clinical isolate Escherichia coli 718 measured after 24 hrs by broth microdilution method; type: functional
[34] = system: Moraxella; assay: Antibacterial activity against clinical isolate Moraxella 765 measured after 24 hrs by broth microdilution method; type: functional
[35] = system: Klebsiella pneumoniae; assay: Antibacterial activity against clinical isolate Klebsiella pneumoniae 1813 measured after 24 hrs by broth microdilution method; type: functional
[36] = system: Pseudomonas aeruginosa; assay: Antibacterial activity against clinical isolate Pseudomonas aeruginosa 1945 measured after 24 hrs by broth microdilution method; type: functional
[37] = system: Serratia marcescens; assay: Antibacterial activity against clinical isolate Serratia marcescens 1966 measured after 24 hrs by broth microdilution method; type: functional
[38] = Lipophilicity, logP of the compound; type: physicochemical; conditions: octanol/water

Compound	MIC [1] [µg/mL]	MIC [2] [µg/mL]	MIC [3] [µg/mL]	MIC [4] [µg/mL]	MIC [5] [µg/mL]	MIC [6] [µg/mL]	MIC [19] [µg/mL]	MIC [20] [µg/mL]	MIC [21] [µg/mL]	MIC [22] [µg/mL]	MIC [23] [µg/mL]	MIC [24] [µg/mL]	MIC [25] [µg/mL]	MIC [26] [µg/mL]	MIC [27] [µg/mL]	MIC [28] [µg/mL]	MIC [29] [µg/mL]	MIC [30] [µg/mL]	MIC [31] [µg/mL]	MIC [32] [µg/mL]	other results
CCCCCCCCCCCCCC(=O)NCC[N+](C)(C)Cc1cnc(C)c2c1COC(C)(C)O2.[Cl-]	64	2	4	4	8	2	4	64	4	4	8	16	4	4	2	2	64	64	64	> 64	CC50 at 72 h [7]: 1.18 µg/mL; CC50 at 72 h [8]: 2.16 µg/mL; CC50 at 72 h [9]: 3.03 µg/mL; Ratio [10]: 0.4; Ratio [11]: 0.5; Ratio [12]: 0.7; Ratio [13]: 1.5; Ratio [14]: 1.5; Ratio [15]: 0.8; Ratio [16]: 0.06; Ratio [17]: 1.7; Ratio [18]: 1.3; MIC [33]: 32 µg/mL; MIC [34]: 64 µg/mL; MIC [35]: 4 µg/mL; MIC [36]: 64 µg/mL; MIC [37]: 64 µg/mL; logP [38]: 1.41
CCCCCCCCCCCCCC(=O)OCC[N+](C)(C)Cc1cnc(C)c2c1COC(CCC)O2.[Cl-] (stereo not given)	> 64	0.5	4	0.5	16	1	2	64	2	2	2	4	4	2	4	4	64	64	32	> 64	CC50 at 72 h [7]: 1 µg/mL; CC50 at 72 h [8]: 1.28 µg/mL; CC50 at 72 h [9]: 2.18 µg/mL; Ratio [10]: 0.3; Ratio [11]: 1.3; Ratio [12]: 1.5; Ratio [13]: 1.5; Ratio [14]: 1.4; Ratio [15]: 0.4; Ratio [16]: 0.04; Ratio [17]: 4.7; Ratio [18]: 1.2; MIC [33]: 32 µg/mL; MIC [34]: 64 µg/mL; MIC [35]: 64 µg/mL; MIC [36]: > 64 µg/mL; MIC [37]: > 64 µg/mL; logP [38]: 2.97
CCCCCCCCCCCCCC(=O)OCC[N+](C)(C)Cc1nc(C)c2c(c1CO)COC(C)(C)O2.[Cl-]	> 64	1	0.5	1	32	> 64	2	32	2	4	4	4	4	2	2	2	64	64	64	> 64	CC50 at 72 h [7]: 0.88 µg/mL; CC50 at 72 h [8]: 1.02 µg/mL; CC50 at 72 h [9]: 2.24 µg/mL; Ratio [10]: 0.3; Ratio [11]: 0.9; Ratio [12]: 1.2; Ratio [13]: 1.6; Ratio [14]: 1.8; Ratio [15]: 0.4; Ratio [16]: 0.05; Ratio [17]: 2.5; Ratio [18]: 2.1; MIC [33]: 32 µg/mL; MIC [34]: 64 µg/mL; MIC [35]: 2 µg/mL; MIC [36]: 64 µg/mL; MIC [37]: > 64 µg/mL; logP [38]: 1.46
CCCCCCCCCCCCCCCCCC(=O)NCCC[N+](C)(C)Cc1cnc(C)c2c1COC(C)(C)O2.[Cl-]	> 64	4	8	4	> 64	8	16	64	8	8	8	16	16	8	4	4	64	64	64	> 64	MIC [33]: > 64 µg/mL; MIC [34]: > 64 µg/mL; MIC [35]: > 64 µg/mL; MIC [36]: > 64 µg/mL; MIC [37]: > 64 µg/mL; logP [38]: 3.25
